Assay results as given in patent US8207142B2, “Inhibitor of DNA methylation” (priority 2001, dated 2012).
Where “and” joins values, the source holds several entries; their conditions need not be identical. Identical values can stand only once.

Columns and labels:
p3 locus = assay: Ms-SNuPE quantitation of DNA methylation in 10T1/2 cells; format: cell-based, mouse; conditions: 24 hours, control 86
Procedure: The average methylation at defined CpG sites was quantitated using a Ms-SNuPE assay, as described by Gonzalgo and Jones (Nucleic Acids Res. 25:2529-2531, 1997) and U.S. Pat. No. 6,251,594. Briefly, genomic DNA (˜4 μg) was digested overnight with 4 units of EcoRI (Boehringer Mannheim) (p16 promoter/exon 1 and p16 exon 2; FIG. 9A) or with 4 units of RsaI (Boehringer Mannheim) (P3; FIG. 9B) to cut outside the region of interest.
After standard treatment with sodium bisulfite, a PCR product of the region was generated as template for top-strand methylation analysis. The sequences of the primers used for bisulfite-treated DNA amplification were as follows: […]
P3: 95° C. for 2 minutes, 95° C. for 1 minute, 50° C. for 50 seconds, and 72° C. for 1 minute for 40 cycles, with a final extension at 72° C. for 10 minutes.
Duplicates of 4 μl of template were then added to 6 μl of mixture consisting of 1× PCR buffer, 1 μM final concentration primers, 1 μCi of [^32P]dCTP or dTTP, and 1 unit 1:1 Taq/TaqStart antibody (Clontech, Palo Alto, Calif.). Single nucleotide extension involved incubation at 95° C. for 1 minute, then 50° C. for 2 minutes, and finally 72° C. for 1 minute (p16 promoter/exon1 and P16 exon 2) and 95° C. for 1 minute, then 46° C. for 30 seconds, and finally 72° C. for 20 seconds (P3). The sequences for SNuPE primers were as follows: […]
After briefly spinning down the tubes, 4 μl of stop solution were added to the 10-μl reaction volume, and the samples were boiled for 5 minutes at 95° C. before loading 1.5 μl onto a 15% denaturing polyacrylamide gel (7 M urea). The gel was run at 90 W for 1.5 hours and then dried at 80° C. for 40 minutes. The gel was exposed to a phosphorimaging cassette for quantitation of the ratio of [^32P]dCTP versus [^32P]dTTP incorporation, and the quantitation of the percent methylation was averaged from three separate CpG sites. The gel was then exposed to BioMax MR film (Kodak) to record experimental results.

T24 cells = assay: Colony-formation assay (decrease in plating efficiency) in T24 cells; format: cell-based, human
Procedure: The percentage cell survival was assessed by dividing the mean colony number on the treated plates divided by the mean colony number on the untreated plates ×100.

[1] = tested on: p16 gene expression in T24 cells; assay: RT-PCR analysis of p16 expression in T24 cells; format: cell-based, human
Procedure: The T24 cell line was obtained from the American Type Culture Collection (Rockville, Md.) and cultured in DMEM supplemented with 10% heat-inactivated fetal calf serum and 100 U/ml penicillin-streptomycin. Cultures were grown in a humidified incubator at 37° C. in an atmosphere of 5% CO2 in air.
Cells were plated (3×10^5 cells/100-mm dish) and treated 24 hours later with the indicated concentrations of compounds. The medium was either changed 24 hours or 48 hours after drug treatment.
DNA and RNA were isolated three days after treatment using the NucleoBond RNA/DNA Midi Kit (Clontech Laboratories, Inc., Palo Alto, Calif.).
Total RNA (˜10 μg) was reverse-transcribed using the following reagents: 100 units RNAsin (Promega Corp., Madison, Wis.), 0.1 M DTT (Life Technologies, Inc.), 1000 units of MMLV-RT (Life Technologies, Inc.), 1 mM deoxynucleotide triphosphates (Boehringer Mannheim, Germany), 75 μg/ml BSA, 1× MMLV-RT buffer (Life Technologies, Inc.), and 0.025 ODU Random Hexamers (Amersham-Pharmacia Biotech, Piscataway, N.J.). The reaction mixture was incubated for 10 minutes at 25° C., 45 minutes at 42° C., 3 minutes at 90° C., and chilled for 5 minutes at 4° C., during which time 1.25 μl of MMLV-RT (200 U/μl) were added and the sample then incubated for 45 minutes at 42° C., 10 minutes at 75° C., and stored at −20° C.
cDNA was amplified with primers specific for either p16 or GAPDH. Briefly, PCR reactions were performed in 25-μl volumes at 94° C. for 3 minutes, 28 cycles at 94° C. for 1 minute, 56° C. for 30 seconds, 72° C. for 40 seconds, and a final extension step at 72° C. for 5 min (p16 amplification), and 94° C. for 1 minute, 19 cycles at 94° C. for 1 minute, 58° C. for 30 seconds, 72° C. for 45 seconds, and a final extension step at 72° C. for 2 minutes (GAPDH amplification).
PCR amplifications were performed with cDNA template concentration equivalent to 100 ng of RNA in 10% DMSO. All reactions were analyzed in the linear range of amplification. PCR products were resolved on 2% agarose gels and subsequently transferred to a nylon membrane (Zetaprobe; Bio-Rad, Richmond, Calif.) under alkaline conditions. All blots were hybridized with a γ-^32P-labeled internal oligonucleotide probe, using protocols previously described (Xiong and Laird, Nuc. Acids Res. 25:2532-2534, 1997).
Since 5-Aza-CdR has been shown previously to induce p16 expression in a dose-dependent manner (Bender et al., Cancer Res. 58:95-101, 1998), the two ribonucleoside analogs 5-Aza-CR and Zeb were examined to determine their abilities to induce p16 expression (FIG. 8). Because Zeb is stable in aqueous solution, the effect of prolonging Zeb treatment on p16 expression was tested by treating these cells with different concentrations of Zeb for either 24 hours or 48 hours. RT-PCR was then performed to determine whether p16 gene was induced by drug treatment.

SMILES	% Methylation (p3 locus; 10 μM)	% Methylation (p3 locus; 30 μM)	Toxicity (%) (decrease in plating efficiency) (T24 cells; 300 μM, 24 hrs)	Toxicity (%) (decrease in plating efficiency) (T24 cells; 300 μM, 48 hrs)	Toxicity (%) (decrease in plating efficiency) (T24 cells; 500 μM, 24 hrs)	Toxicity (%) (decrease in plating efficiency) (T24 cells; 500 μM, 48 hrs)	Toxicity (%) (decrease in plating efficiency) (T24 cells; 1000 μM (1 mM), 48 hrs)	Toxicity (%) (decrease in plating efficiency) (T24 cells; 1000 μM, 24 hrs)	p16 expression (RT-PCR) ([1]; 300 μM for 24 hours)	p16 expression (RT-PCR) ([1]; 300 μM for 48 hours)	p16 expression (RT-PCR) ([1]; 500 μM for 24 hours)	% Methylation (p3 locus; 1 μM)	% Methylation (p3 locus; 3 μM)	Toxicity (%) (decrease in plating efficiency) (T24 cells; 3 μM, 24 hrs)	Toxicity (%) (decrease in plating efficiency) (T24 cells; 10 μM, 24 hrs)	Toxicity (%) (decrease in plating efficiency) (T24 cells; 30 μM, 24 hrs)	Toxicity (%) (decrease in plating efficiency) (T24 cells; 100 μM, 24 hrs)	p16 expression (RT-PCR) ([1]; 3 μM)	p16 expression (RT-PCR) ([1]; 100 μM)	highest p16 expression level relative to that with 3 μM 5-Aza-CdR ([1]; 100 μM 5-Aza-CR vs 3 μM 5-Aza-CdR)
O=c1ncccn1[C@@H]1O[C@H](CO)[C@@H](O)[C@H]1O [Zebularine, 1-β-ribofuranosyl-1,2-dihydropyrimidin-2-one]	75 +/− 2%	58% and 58 +/− 1%	1%	2%	7%	8%	23%	18%	insufficient to induce p16 expression	p16 expression was induced	p16 expression was induced	–	–	–	–	–	–	–	–	–
Nc1ncn([C@@H]2O[C@H](CO)[C@@H](O)[C@H]2O)c(=O)n1 [5-Aza-CR, 5-azacytidine, reference compound]	–	–	–	–	–	–	–	–	–	–	–	65 +/− 2%	59% and 59 +/− 6%	2%	12%	30%	54%	no expression	significant expression	one-fifth
